# Source: patent US9751854B2 (Millennium Pharmaceuticals, Inc., priority 2014, dated 2017)
# Biological target: human VPS34 (Homo sapiens (Human), UniProt Q8NEB9)
# Test: Human VPS34 enzyme assay (Adapta TR-FRET ADP detection)
# Format: biochemical
# Set-up: Percent Inhibition: dose or concentration left out as unconfirmed
# Conditions: not given
# Chain of human VPS34 (Q8NEB9 whole entry): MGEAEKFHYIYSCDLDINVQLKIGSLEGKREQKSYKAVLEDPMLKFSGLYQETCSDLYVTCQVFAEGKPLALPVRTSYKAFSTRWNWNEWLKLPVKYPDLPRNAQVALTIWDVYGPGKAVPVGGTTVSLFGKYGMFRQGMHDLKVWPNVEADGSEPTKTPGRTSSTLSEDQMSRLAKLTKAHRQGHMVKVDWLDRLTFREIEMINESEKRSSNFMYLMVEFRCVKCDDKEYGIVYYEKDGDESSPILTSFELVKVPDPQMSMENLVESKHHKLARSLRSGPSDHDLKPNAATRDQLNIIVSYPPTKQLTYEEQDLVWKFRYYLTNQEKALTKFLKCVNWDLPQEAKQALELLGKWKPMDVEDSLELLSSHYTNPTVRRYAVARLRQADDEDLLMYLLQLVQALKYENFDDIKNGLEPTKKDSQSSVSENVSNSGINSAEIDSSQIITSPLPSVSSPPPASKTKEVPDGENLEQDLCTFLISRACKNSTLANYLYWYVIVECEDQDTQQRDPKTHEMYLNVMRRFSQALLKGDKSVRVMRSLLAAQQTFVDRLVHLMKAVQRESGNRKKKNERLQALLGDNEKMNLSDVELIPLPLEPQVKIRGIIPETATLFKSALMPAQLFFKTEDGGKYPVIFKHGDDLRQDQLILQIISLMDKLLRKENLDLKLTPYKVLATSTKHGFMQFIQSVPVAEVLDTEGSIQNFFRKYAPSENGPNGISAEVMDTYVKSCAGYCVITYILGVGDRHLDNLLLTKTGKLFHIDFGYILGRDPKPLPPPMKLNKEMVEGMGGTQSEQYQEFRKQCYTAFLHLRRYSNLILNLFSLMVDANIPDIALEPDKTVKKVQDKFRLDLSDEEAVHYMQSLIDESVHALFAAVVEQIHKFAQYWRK
row,Percent Inhibition [%],SMILES
1,>99,"CC(=O)Nc1cc(-c2ccnc(Nc3ccnc(C4CC4)n3)c2)cn2nccc12 [Compound I-371, N-(6-{2-[(2-cyclopropylpyrimidin-4-yl)amino]pyridin-4-yl}pyrazolo[1,5-a]pyridin-4-yl)acetamide]"
2,>99,CC(=O)Nc1cc(-c2cnc(C)c(NS(=O)(=O)c3cc(F)ccc3F)c2)ccn1 [Compound I-52]

# Same assay, conditions: IC50 range class
row,IC50 [nM],SMILES
1,10 to 50,"CNS(=O)(=O)Nc1cc(-c2ccnc(NC(C)=O)c2)cnc1C [Compound I-455, N-{6-methyl-5-[(methylsulfamoyl)amino]-3,4′-bipyridin-2′-yl}acetamide]"
2,< 10,"CC(=O)Nc1cc(-c2cnc(N)c(S(=O)(=O)N3CCCC3)c2)ccn1 [Compound I-87, N-[6-amino-5-(pyrrolidin-1-ylsulfonyl)-3,4′-bipyridin-2′-yl]acetamide]"
3,< 10,"COC(=O)Nc1cc(-c2cnc(N)c(S(=O)(=O)N(C)C)c2)ccn1 [Compound I-171, Methyl [6-amino-5-(dimethylsulfamoyl)-3,4′-bipyridin-2′-yl]carbamate]"
4,10 to 50,"CC(=O)Nc1cc(-c2cncc(S(=O)(=O)NC3CCC3)c2)ccn1 [Compound I-396, N-[5-(cyclobutylsulfamoyl)-3,4′-bipyridin-2′-yl]acetamide]"
5,10 to 50,"CC(=O)Nc1cc(-c2cnc3[nH]cc(S(=O)(=O)c4ccccc4)c3c2)ccn1 [Compound I-176, N-{4-[3-(phenylsulfonyl)-1H-pyrrolo[2,3-b]pyridin-5-yl]pyridin-2-yl}acetamide]"
6,< 10,"CCc1ncc(-c2ccnc(NC(C)=O)c2)cc1NS(=O)(=O)c1ccc(F)cc1F [Compound I-201, N-(5-{[(2,4-difluorophenyl)sulfonyl]amino}-6-ethyl-3,4′-bipyridin-2′-yl)acetamide]"
7,10 to 50,"Cc1nccc(Nc2cc(-c3cnc(C)c(OC(C)C)c3)ccn2)n1 [Compound I-446, 5-isopropoxy-6-methyl-N-(2-methylpyrimidin-4-yl)-3,4′-bipyridin-2′-amine]"
8,10 to 50,"CCN(CC)S(=O)(=O)c1cc(-c2ccnc(NC(C)=O)c2)cnc1C [Compound I-370, N-[5-(diethylsulfamoyl)-6-methyl-3,4′-bipyridin-2′-yl]acetamide]"
9,10 to 50,"Cc1ncc(-c2ccnc(Nc3nc4ccccc4o3)c2)cc1NS(=O)(=O)c1ccc(F)cc1F [Compound I-233, N-[2′-(1,3-benzoxazol-2-ylamino)-6-methyl-3,4′-bipyridin-5-yl}2,4-difluorobenzenesulfonamide]"
10,10 to 50,"Cc1nccc(Nc2cc(-c3cnc(Cl)c(N)c3C)ccn2)n1 [Compound I-226, 6-chloro-4-methyl-N-2′-(2-methylpyrimidin-4-yl)-3,4′-bipyridine-2′,5-diamine]"
11,10 to 50,CC(=O)Nc1cc(-c2cnc(C)c(N3CCCN(C)S3(=O)=O)c2)ccn1 [Compound I-343]
12,10 to 50,"CC(=O)Nc1cc(-c2cncc(N3CCCCS3(=O)=O)c2)ccn1 [Compound I-320, N-[5-(1,1-dioxido-1,2-thiazinan-2-yl)-3,4′-bipyridin-2′-yl]acetamide]"
13,10 to 50,"Cc1cnc(NC(=O)C2CC2)cc1-c1cnc(Cl)c(NS(=O)(=O)c2ccc(F)cc2F)c1C [Compound I-430, N-(6-chloro-5-{[(2,4-difluorophenyl)sulfonyl]amino}-4,5′-dimethyl-3,4′-bipyridin-2′-yl)cyclopropanecarboxamide]"
14,< 10,"CC(=O)Nc1cc(-c2ccnc(Nc3ccnc(C4CC4)n3)c2)cn2nccc12 [Compound I-371, N-(6-{2-[(2-cyclopropylpyrimidin-4-yl)amino]pyridin-4-yl}pyrazolo[1,5-a]pyridin-4-yl)acetamide]"
15,10 to 50,"CCc1c(-c2ccnc(NC(C)=O)c2)cnc(Cl)c1NS(=O)(=O)c1ccc(F)cc1F [Compound I-469, N-(6-chloro-5-{[(2,4-difluorophenyl)sulfonyl]amino}-4-ethyl-3,4′-bipyridin-2′-yl)acetamide]"
16,< 10,"CC(=O)Nc1cc(-c2cnc(N)c(S(=O)(=O)N(C)CC3CC3)c2)ccn1 [Compound I-110, N-{6-amino-5-[(cyclopropylmethyl)(methyl)sulfamoyl]-3,4′-bipyridin-2′-yl}acetamide]"
17,< 10,CC(=O)Nc1cc(-c2cnc(C)c(NS(=O)(=O)c3cc(F)ccc3F)c2)ccn1 [Compound I-52]

# Further lines, the molecule ahead of its results:
row,SMILES,IC50 [nM]
1,CC(=O)Nc1cc(-c2cnc(N)c(S(=O)(=O)N(C)C)c2)c(F)cn1 [Compound I-186],10 to 50
2,"Cc1nccc(Nc2cc(-c3cnc(Cl)c(NS(=O)(=O)c4ccc(F)cc4F)c3C)c(F)cn2)n1 [Compound I-294, N-{6-chloro-5′-fluoro-4-methyl-2′-[(2-methylpyrimidin-4-yl)amino]-3,4′-bipyridin-5-yl}-2,4-difluorobenzenesulfonamide]",< 10
3,"COc1ncc(-c2ccnc(NC(C)=O)c2)c(C)c1S(=O)(=O)NC(C)(C)C [Compound I-442, N-[5-(tert-butylsulfamoyl)-6-methoxy-4-methyl-3,4′-bipyridin-2′-yl]acetamide]",10 to 50
4,"CC(=O)Nc1cc(-c2cncc(S(=O)(=O)N3CC(F)(F)C3)c2)ccn1 [Compound I-391, N-{5-[(3,3-difluoroazetidin-1-yl)sulfonyl]-3,4′-bipyridin-2′-yl}acetamide]",10 to 50
5,"CC(=O)Nc1cc(-c2cnc(Cl)c(NS(=O)(=O)c3ccccc3F)c2C)ccn1 [Compound I-251, N-(6-chloro-5-{[(2-fluorophenyl)sulfonyl]amino}-4-methyl-3,4′-bipyridin-2′-yl)acetamide]",10 to 50
6,"Cc1nccc(Nc2cc(-c3cnc(Cl)c(C(=O)N4CCC4)c3)ccn2)n1 [Compound I-232, azetidin-1-yl[6-chloro-2′-[(2-methylpyrimidin-4-yl)amino]-3,4′-bipyridin-5-yl}methanone]",10 to 50
7,"CC(=O)Nc1cc(-c2cnc(C)c(NS(=O)(=O)CC(F)F)c2)ccn1 [Compound I-412, N-(5-{[(2,2-difluoroethyl)sulfonyl]amino}-6-methyl-3,4′-bipyridin-2′-yl)acetamide]",10 to 50
8,"CC(=O)Nc1cc(-c2cnc(N)c(S(=O)(=O)N3CCOCC3)c2)ccn1 [Compound I-24, N-[6-amino-5-(morpholin-4-ylsulfonyl)-3,4′-bipyridin-2′-yl]acetamide]",< 10
9,"Cc1ncc(-c2ccnc(NC(=O)OCC3(C)COC3)c2)cc1NS(=O)(=O)c1ccc(F)cc1F [Compound I-324, (3-methyloxetan-3-yl)methyl (5-{[(2,4-difluorophenyl)sulfonyl]amino}-6-methyl-3,4′-bipyridin-2′-yl)carbamate]",10 to 50
10,"CC(=O)Nc1cc(-c2cnc(N)c(S(=O)(=O)N3CCCCC3)c2)ccn1 [Compound I-156, N-[6-amino-5-(piperidin-1-ylsulfonyl)-3,4′-bipyridin-2′-yl]acetamide]",< 10
11,"CC(=O)Nc1cc(-c2cnc(C)c(NS(=O)(=O)c3cc(Cl)ccc3Cl)c2)ccn1 [Compound I-111, N-(5-{[(2,5-dichlorophenyl)sulfonyl]amino}-6-methyl-3,4′-bipyridin-2′-yl)acetamide]",< 10
12,"CC(=O)Nc1cc(-c2cnc3ncn(CC4CC4)c3c2)ccn1 [Compound I-135, N-{4-[1-(cyclopropylmethyl)-1H-imidazo[4,5-b]pyridin-6-yl]pyridin-2-yl}acetamide]",> 100
13,"Cc1ncc(-c2ccnc(Nc3ccnc(C(F)(F)F)n3)c2)cc1C(=O)N1CCC1 [Compound I-292, azetidin-1-yl(6-methyl-2′-[(2-(trifluoromethyl)pyrimidin-4-yl]amino}-3,4′-bipyridin-5-yl)methanone]",10 to 50
14,"Cc1c(-c2ccnc(Nc3ccnc(-c4ccccc4)n3)c2)cnc(Cl)c1NS(=O)(=O)c1ccc(F)cc1F [Compound I-264, N-{6-chloro-4-methyl-2′-[(2-phenylpyrimidin-4-yl)amino]-3,4′-bipyridin-5-yl}-2,4-difluorobenzenesulfonamide]",< 10
15,"CC(=O)Nc1cc(-c2cnc(Cl)c(NS(=O)(=O)c3ccc(C(F)(F)F)cc3Cl)c2C)ccn1 [Compound I-333, N-(6-chloro-5-(2-chloro-4-(trifluoromethyl)phenylsulfonamido)-4-methyl-[3,4′-bipyridin]-2′-yl)acetamide]",10 to 50
16,"CC(=O)Nc1cc(-c2cnc(C)c(N3CCCS3(=O)=O)c2)ccn1 [Compound I-88, N-[5-(1,1-dioxidoisothiazolidin-2-yl)-6-methyl-3,4′-bipyridin-2′-yl]acetamide]",10 to 50
17,"CC(=O)Nc1cc(-c2cnc(C)c(NS(=O)(=O)N3CCCC3)c2)ccn1 [Compound I-274, N-{6-methyl-5-[(pyrrolidin-1-ylsulfonyl)amino]-3,4′-bipyridin-2′-yl}acetamide]",10 to 50
18,"Cc1nccc(Nc2cc(-c3cnc(C)c(OCCO)c3)ccn2)n1 [Compound I-424, 2-({6-methyl-2′-[(2-methylpyrimidin-4-yl)amino]-3,4′-bipyridin-5-yl}oxy)ethanol]",10 to 50
19,"CC(=O)Nc1cc(-c2cnc(N(C)C)c(C(=O)Nc3ccc(F)cc3F)c2)ccn1 [Compound I-112, 2′-acetamido-N-(2,4-difluorophenyl)-6-(dimethylamino)-3,4′-bipyridine-5-carboxamide]",50 to 100
20,"CNc1ncc(-c2ccnc(NC(C)=O)c2)cc1N(C)S(C)(=O)=O [Compound I-147, N-{6-(methylamino)-5-[methyl(methylsulfonyl)amino]-3,4′-bipyridin-2′-yl}acetamide]",< 10
21,"CC(=O)Nc1cc(-c2cnc(N)c(S(=O)(=O)C(C)C)c2)ccn1 [Compound I-175, N-[6-amino-5-(isopropylsulfonyl)-3,4′-bipyridin-2′-yl]acetamide]",10 to 50
22,"CC(=O)Nc1cc(-c2cnc3[nH]ncc3c2)c(C)cn1 [Compound I-209, N-[5-methyl-4-(1H-pyrazolo[3,4-b]pyridin-5-yl)pyridin-2-yl]acetamide]",> 100
23,"COc1ncc(-c2ccnc(NC(C)=O)c2)cc1S(=O)(=O)Nc1cccc(C(F)(F)F)c1 [Compound I-329, N-(6-methoxy-5-{[3-(trifluoromethyl)phenyl]sulfamoyl}-3,4′-bipyridin-2′-yl)acetamide]",10 to 50
24,"Cc1ncc(-c2ccnc(NC(=O)C3CC3(F)F)c2)cc1NS(=O)(=O)N(C)C (centres unmarked) [Compound I-244, N-{5-[(dimethylsulfamoyl)amino]-6-methyl-3,4′-bipyridin-2′-yl}-2,2-difluorocyclopropanecarboxamide]",10 to 50
25,"CC(=O)Nc1cc(-c2cncc(S(=O)(=O)NC(C)(C)C)c2C)ccn1 [Compound I-462, N-(5-(N-(tert-butyl)sulfamoyl)-4-methyl-[3,4′-bipyridin]-2′-yl)acetamide]",> 100
